Laboratory results as given in US12662491B2 (Redona Therapeutics, Inc., priority 2020, dated 2026).

The compounds below were run against T1, Zcchc11 enzyme (Homo sapiens, UniProt Q5TAX3) (assay: TUTase assay (Zcchc11 assay, Lin28a-dependent polyuridylation of pre-let-7)). Details: Lin28a-dependent Zcchc11 (Z11) TUTase assay; read-out: Potency Lin28a-dep Z11 IC50.
T1 construct: made in house; host or cells: HEK293 cells (Zcchc11); E. coli Rosetta II (LIN28A)
T1 sequence (Q5TAX3 212-1420): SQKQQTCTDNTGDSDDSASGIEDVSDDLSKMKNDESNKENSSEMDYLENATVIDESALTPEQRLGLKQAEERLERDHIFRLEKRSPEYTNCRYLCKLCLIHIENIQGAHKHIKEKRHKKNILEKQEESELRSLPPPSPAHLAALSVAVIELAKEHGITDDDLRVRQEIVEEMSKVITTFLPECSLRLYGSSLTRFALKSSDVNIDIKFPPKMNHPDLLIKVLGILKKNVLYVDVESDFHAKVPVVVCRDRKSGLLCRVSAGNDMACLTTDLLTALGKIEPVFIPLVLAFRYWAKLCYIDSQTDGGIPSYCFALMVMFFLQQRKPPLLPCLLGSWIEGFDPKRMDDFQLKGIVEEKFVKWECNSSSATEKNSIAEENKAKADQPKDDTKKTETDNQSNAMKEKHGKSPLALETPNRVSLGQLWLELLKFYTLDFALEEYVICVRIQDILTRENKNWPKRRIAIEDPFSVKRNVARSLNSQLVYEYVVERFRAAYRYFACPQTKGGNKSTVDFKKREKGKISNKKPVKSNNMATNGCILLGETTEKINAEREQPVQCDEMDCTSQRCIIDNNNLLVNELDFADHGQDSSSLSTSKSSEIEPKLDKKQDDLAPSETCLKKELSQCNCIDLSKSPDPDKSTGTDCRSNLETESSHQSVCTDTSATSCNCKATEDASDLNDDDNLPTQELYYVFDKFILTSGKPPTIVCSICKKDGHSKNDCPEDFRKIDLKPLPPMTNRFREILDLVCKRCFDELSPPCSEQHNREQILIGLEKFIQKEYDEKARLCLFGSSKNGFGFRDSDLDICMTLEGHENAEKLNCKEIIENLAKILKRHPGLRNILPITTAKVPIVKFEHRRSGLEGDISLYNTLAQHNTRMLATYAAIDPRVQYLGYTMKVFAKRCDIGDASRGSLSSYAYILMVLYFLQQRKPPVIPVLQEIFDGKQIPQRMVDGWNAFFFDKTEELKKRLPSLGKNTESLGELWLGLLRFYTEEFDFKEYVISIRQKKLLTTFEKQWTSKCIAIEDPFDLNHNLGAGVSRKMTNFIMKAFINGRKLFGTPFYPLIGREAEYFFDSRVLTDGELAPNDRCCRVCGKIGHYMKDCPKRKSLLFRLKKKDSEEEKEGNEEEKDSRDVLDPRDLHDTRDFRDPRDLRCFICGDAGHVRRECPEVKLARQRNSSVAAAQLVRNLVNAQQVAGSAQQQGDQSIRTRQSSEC
Format: biochemical
How it was run: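 Human Zcchc11 residues 212-1420 (HEK293-expressed, MBP tag cleaved, C-terminal FLAG) at 0.2 nM, with 10 nM full-length human LIN28A and 2 nM 5′-fluorescein pre-let-7, preincubated with compound 30 min at room temperature. Reaction started with 5 uM UTP plus 4 nM 3′-rhodamine A20 quench probe; fluorescein loss read kinetically, IC50 from initial rates.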

IC50, 1 to 10 µM:
CN(C)C1CN(c2ccc(-n3cc(C(=O)O)c(=O)c4cc(Cl)c(N5CCC[C@@H]5C[S+]([O-])c5ncccc5Cl)cc43)cn2)C1 (stereo partly drawn) [Example 610, 6-chloro-7-((2R)-2-(((3-chloropyridin-2-yl)sulfinyl)methyl)pyrrolidin-1-yl)-1-(6-(3-(dimethylamino)azetidin-1-yl)pyridin-3-yl)-4-oxo-1,4-dihydroquinoline-3-carboxylic acid]
CN(C)C1CN(c2ncc(-n3cc(C(=O)O)c(=O)c4cc(Cl)c(N5CCC[C@]5(C)COc5ncccc5Cl)nc43)cn2)C1 [Example 622, (R)-6-chloro-7-(2-(((3-chloropyridin-2-yl)oxy)methyl)-2-methylpyrrolidin-1-yl)-1-(2-(3-(dimethylamino)azetidin-1-yl)pyrimidin-5-yl)-4-oxo-1,4-dihydro-1,8-naphthyridine-3-carboxylic acid]

IC50, ≤ 1 µM:
O=C(O)c1cn(-c2cc3nc[nH]c3cn2)c2cc(N3CCC[C@@H]3COc3ncccc3Cl)c(Cl)cc2c1=O [Example 604, (R)-6-chloro-7-(2-(((3-chloropyridin-2-yl)oxy)methyl)pyrrolidin-1-yl)-1-(3H-imidazo[4,5-c]pyridin-6-yl)-4-oxo-1,4-dihydroquinoline-3-carboxylic acid]
O=C(O)c1cn(-c2ccc(C3COC3)nc2)c2cc(N3CCC[C@@H]3COc3ncccc3Cl)c(Cl)cc2c1=O [Example 605, (R)-6-chloro-7-(2-(((3-chloropyridin-2-yl)oxy)methyl)pyrrolidin-1-yl)-1-(6-(oxetan-3-yl)pyridin-3-yl)-4-oxo-1,4-dihydroquinoline-3-carboxylic acid]
O=C(O)c1cn(-c2ccc(C3CNC3)nc2)c2cc(N3CCC[C@@H]3COc3ncccc3Cl)c(Cl)cc2c1=O [Example 606, (R)-1-(6-(azetidin-3-yl)pyridin-3-yl)-6-chloro-7-(2-(((3-chloropyridin-2-yl)oxy)methyl)pyrrolidin-1-yl)-4-oxo-1,4-dihydroquinoline-3-carboxylic acid]
O=C(O)c1cn(-c2ccc(C3(O)COC3)nc2)c2cc(N3CCC[C@@H]3COc3ncccc3Cl)c(Cl)cc2c1=O [Example 607, (R)-6-chloro-7-(2-(((3-chloropyridin-2-yl)oxy)methyl)pyrrolidin-1-yl)-1-(6-(3-hydroxy-oxetan-3-yl)pyridin-3-yl)-4-oxo-1,4-dihydroquinoline-3-carboxylic acid]
CN(C)C1CN(c2ccc(-n3cc(C(=O)O)c(=O)c4cc(Cl)c(N5CC(c6ccc(O)nc6)C[C@@H]5COc5ncccc5Cl)cc43)cn2)C1 (some centres unmarked) [Example 608]
CN(C)C1CN(c2ccc(-n3cc(C(=O)O)c(=O)c4cc(Cl)c(N5CCC[C@@]5(C)COc5ncccc5Cl)cc43)cn2)C1 [Example 609, (S)-6-chloro-7-(2-(((3-chloropyridin-2-yl)oxy)methyl)-2-methylpyrrolidin-1-yl)-1-(6-(3-(dimethylamino)azetidin-1-yl)pyridin-3-yl)-4-oxo-1,4-dihydroquinoline-3-carboxylic acid]
O=C(O)c1cn(-c2ccc(C3(O)CNC3)nc2)c2cc(N3CCC[C@@H]3COc3ncccc3Cl)c(Cl)cc2c1=O [Example 611, (R)-6-chloro-7-(2-(((3-chloropyridin-2-yl)oxy)methyl)pyrrolidin-1-yl)-1-(6-(3-hydroxyazetidin-3-yl)pyridin-3-yl)-4-oxo-1,4-dihydroquinoline-3-carboxylic acid]
CN(C)C1CN(c2ccc(-n3cc(C(=O)O)c(=O)c4cc(F)c(N5CCC[C@@H]5COc5cc(OCc6ccccc6)ccn5)c(F)c43)cn2)C1 [Example 612, (R)-7-(2-(((4-(benzyloxy)pyridin-2-yl)oxy)methyl)pyrrolidin-1-yl)-1-(6-(3-(dimethylamino)azetidin-1-yl)pyridin-3-yl)-6,8 difluoro-4-oxo-1,4-dihydroquinoline-3-carboxylic acid]
CN(C)C1CN(c2ccc(-n3cc(C(=O)O)c(=O)c4cc(F)c(N5CCC[C@@H]5COc5ncccc5Cl)c(F)c43)cn2)C1 [Example 613]
COCCN(C)C1CN(c2ccc(-n3cc(C(=O)O)c(=O)c4cc(F)c(N5CCC[C@@H]5COc5ncccc5Cl)cc43)cn2)C1 [Example 614, (R)-7-(2-(((3-chloropyridin-2-yl)oxy)methyl)pyrrolidin-1-yl)-6-fluoro-1-(6-(3-((2-methoxyethyl) (methyl)amino)azetidin-1-yl)pyridin-3-yl)-4-oxo-1,4-dihydroquinoline-3-carboxylic acid]
CC(C)(C)OC(=O)N1CC(c2ccc(-n3cc(C(=O)O)c(=O)c4cc(Cl)c(N5CCC[C@@H]5COc5ncccc5Cl)cc43)cn2)C1 [Example 615, (R)-1-(6-(1-(tert-butoxycarbonyl)azetidin-3-yl)pyridin-3-yl)-6-chloro-7-(2-(((3-chloropyridin-2-yl)oxy)methyl)pyrrolidin-1-yl)-4-oxo-1,4-dihydroquinoline-3-carboxylic acid]
Cc1nc2cc(-n3cc(C(=O)O)c(=O)c4cc(Cl)c(N5CCC[C@@H]5COc5ncccc5Cl)cc43)ncc2[nH]1 [Example 616, (R)-6-chloro-7-(2-(((3-chloropyridin-2-yl)oxy)methyl)pyrrolidin-1-yl)-1-(2-methyl-3H-imidazo[4,5-c]pyridin-6-yl)-4-oxo-1,4-dihydroquinoline-3-carboxylic acid]
Nc1cc(-n2cc(C(=O)O)c(=O)c3cc(Cl)c(N4CCC[C@@H]4COc4ncccc4Cl)cc32)cnn1 [Example 617, (R)-1-(6-aminopyridazin-4-yl)-6-chloro-7-(2-(((3-chloropyridin-2-yl)oxy)methyl)pyrrolidin-1-yl)-4-oxo-1,4-dihydroquinoline-3-carboxylic acid]
CN(C)C1CN(c2ccc(-n3cc(C(=O)O)c(=O)c4cc(Cl)c(N5CCC[C@@H]5CS(=O)(=O)c5ncccc5Cl)cc43)cn2)C1 [Example 618, (R)-6-chloro-7-(2-(((3-chloropyridin-2-yl)sulfonyl)methyl)pyrrolidin-1-yl)-1-(6-(3-(dimethylamino)azetidin-1-yl)pyridin-3-yl)-4-oxo-1,4-dihydroquinoline-3-carboxylic acid]
CN(C)C1CN(c2ccc(-n3cc(C(=O)O)c(=O)c4cc(Cl)c(N5C6CC6C[C@@H]5COc5ccccn5)cc43)cn2)C1 (stereo partly drawn) [Example 619, 6-chloro-1-(6-(3-(dimethylamino)azetidin-1-yl)pyridin-3-yl)-4-oxo-7-((3R)-3-((pyridin-2-yloxy)methyl)-2-azabicyclo[3.1.0]hexan-2-yl)-1,4-dihydroquinoline-3-carboxylic acid]
CN(C)C1CN(c2ccc(-n3cc(C(=O)O)c(=O)c4cc(F)c(N5CCC[C@]5(C)COc5ncccc5Cl)nc43)cn2)C1 [Example 620, (R)-7-(2-(((3-chloropyridin-2-yl)oxy)methyl)-2-methylpyrrolidin-1-yl)-1-(6-(3-(dimethylamino)azetidin-1-yl)pyridin-3-yl)-6-fluoro-4-oxo-1,4-dihydro-1,8-naphthyridine-3-carboxylic acid]
O=C(O)c1cn(-c2ccc3c(c2)CS(=O)(=O)N3)c2cc(N3CCC[C@@H]3COc3ncccc3Cl)c(Cl)cc2c1=O [Example 621, (R)-6-chloro-7-(2-(((3-chloropyridin-2-yl)oxy)methyl)pyrrolidin-1-yl)-1-(2,2-dioxido-1,3-dihydrobenzo[c]isothiazol-5-yl)-4-oxo-1,4-dihydroquinoline-3-carboxylic acid]
CN(C)C1CN(c2ncc(-n3cc(C(=O)O)c(=O)c4cc(Cl)c(N5CCC[C@@]5(C)COc5ncccc5Cl)nc43)cn2)C1 [Example 623, (S)-6-chloro-7-(2-(((3-chloropyridin-2-yl)oxy)methyl)-2-methylpyrrolidin-1-yl)-1-(2-(3-(dimethylamino)azetidin-1-yl)pyrimidin-5-yl)-4-oxo-1,4-dihydro-1,8-naphthyridine-3-carboxylic acid]
